Measurements published in patent US20200405697A1, “Antitumor Agent” (Taiho Pharmaceutical Co., Ltd, priority 2017, published 2020).

target: T1, human RNR (histidine tagged human M1 and human M2 proteins) (Homo sapiens, UniProt P23921); assay: Human RNR inhibition effect (dCDP formation from CDP); type: biochemical; settings: 10 μM CDP, 37° C. for 30 minutes, read-out: RNR inhibitory activity IC50
T1 construct: made in house; host or cells: Escherichia coli
T1 sequence (P23921 1-792): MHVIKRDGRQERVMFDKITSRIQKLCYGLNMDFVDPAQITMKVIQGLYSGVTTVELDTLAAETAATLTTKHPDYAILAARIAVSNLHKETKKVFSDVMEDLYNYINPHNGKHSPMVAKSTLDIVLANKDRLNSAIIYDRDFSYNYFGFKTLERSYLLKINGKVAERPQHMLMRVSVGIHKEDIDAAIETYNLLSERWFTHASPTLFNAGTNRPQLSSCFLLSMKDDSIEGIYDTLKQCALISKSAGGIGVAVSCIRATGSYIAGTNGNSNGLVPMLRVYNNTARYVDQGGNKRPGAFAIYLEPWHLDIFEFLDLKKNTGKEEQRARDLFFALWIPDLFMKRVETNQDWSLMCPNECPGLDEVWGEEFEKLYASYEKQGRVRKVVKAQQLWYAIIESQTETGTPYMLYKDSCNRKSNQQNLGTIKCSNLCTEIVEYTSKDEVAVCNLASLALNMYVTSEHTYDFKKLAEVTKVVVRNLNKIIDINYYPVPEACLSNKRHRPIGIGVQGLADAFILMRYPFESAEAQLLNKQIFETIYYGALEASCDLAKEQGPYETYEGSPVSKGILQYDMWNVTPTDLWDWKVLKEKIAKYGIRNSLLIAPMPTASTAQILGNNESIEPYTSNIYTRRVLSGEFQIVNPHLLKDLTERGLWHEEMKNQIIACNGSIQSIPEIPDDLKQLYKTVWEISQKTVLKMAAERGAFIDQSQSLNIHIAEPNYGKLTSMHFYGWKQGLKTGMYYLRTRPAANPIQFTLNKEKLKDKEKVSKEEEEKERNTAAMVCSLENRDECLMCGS
Procedure, shortened: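 His-tagged human M1 (isoform 1) and N-terminal 59-aa-truncated M2 (isoform 2), E. coli-expressed, Ni-purified, preincubated 20 min with compound (1% DMSO). Reaction with 10 μM CDP, 2 mM ATP, 0.24 mM NADPH, 6 mM DTT, 4 mM Mg acetate, 100 mM KCl, 50 mM HEPES pH 7.2, 30 min at 37° C. dCDP formed quantified by reverse-phase HPLC after heat stop.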

Row | SMILES | IC50 [nM]
1 | COc1cc(Cl)ccc1S(=O)(=O)N[C@H](c1n[nH]c(=O)o1)[C@H](C)c1c(F)ccc(-c2ccc(Cl)nc2)c1C [Example 313, 4-chloro-N-((1S,2R)-2-(3-(6-chloropyridin-3-yl)-6-fluoro-2-methylphenyl)-1-(5-oxo-4,5-dihydro-1,3,4-oxadiazol-2-yl)propyl)-2-methoxybenzenesulfonamide] | 340
2 | COc1cc(Cl)ccc1S(=O)(=O)N[C@H](c1n[nH]c(=O)o1)[C@H](C)c1c(F)ccc(-c2ccc(N3CCOCC3)nc2)c1C [Example 315, 4-chloro-N-((1S,2R)-2-(6-fluoro-2-methyl-3-(6-morpholinopyridin-3-yl)phenyl)-1-(5-oxo-4,5-dihydro-1,3,4-oxadiazol-2-yl)propyl)-2-methoxybenzenesulfonamide] | 190
3 | COc1cc(Cl)ccc1S(=O)(=O)N[C@H](c1n[nH]c(=O)o1)[C@H](C)c1c(F)ccc(-c2cn(C)nc2C)c1C [Example 317, 4-chloro-N-((1S,2R)-2-(3-(1,3-dimethyl-1H-pyrazol-4-yl)-6-fluoro-2-methylphenyl)-1-(5-oxo-4,5-dihydro-1,3,4-oxadiazol-2-yl)propyl)-2-methoxybenzenesulfonamide] | 280
4 | COc1cc(Cl)ccc1S(=O)(=O)N[C@H](c1n[nH]c(=O)o1)[C@H](C)c1c(F)ccc(-c2cncnc2)c1C [Example 318, 4-chloro-N-((1S,2R)-2-(6-fluoro-2-methyl-3-(pyrimidin-5-yl)phenyl)-1-(5-oxo-4,5-dihydro-1,3,4-oxadiazol-2-yl)propyl)-2-methoxybenzenesulfonamide] | 540
5 | COc1cc(Cl)ccc1S(=O)(=O)N[C@H](c1n[nH]c(=O)o1)[C@H](C)c1c(F)ccc(-c2cncc(C(=O)N3CCOCC3)c2)c1C [Example 323, 4-chloro-N-((1S,2R)-2-(6-fluoro-2-methyl-3-(5-(morpholine-4-carbonyl)pyridin-3-yl)phenyl)-1-(5-oxo-4,5-dihydro-1,3,4-oxadiazol-2-yl)propyl)-2-methoxybenzenesulfonamide] | 420
6 | Cc1c(-c2cnn(C)c2)ccc(F)c1[C@@H](C)[C@H](NS(=O)(=O)c1ccc(Cl)cc1C(N)=O)c1n[nH]c(=O)o1 [Example 324, 5-chloro-2-(N-((1S,2R)-2-(6-fluoro-2-methyl-3-(1-methyl-1H-pyrazol-4-yl)phenyl)-1-(5-oxo-4,5-dihydro-1,3,4-oxadiazol-2-yl)propyl)sulfamoyl)benzamide] | 170
7 | Cc1ccc(F)c([C@@H](C)[C@H](NS(=O)(=O)c2ccc(Cl)c(-c3cnn(C)c3)c2)c2n[nH]c(=O)o2)c1C [Example 325, 4-chloro-N-((1S,2R)-2-(6-fluoro-2,3-dimethylphenyl)-1-(5-oxo-4,5-dihydro-1,3,4-oxadiazol-2-yl)propyl)-3-(1-methyl-1H-pyrazol-4-yl)benzenesulfonamide] | 220
8 | Cc1ccc(F)c([C@@H](C)[C@H](NS(=O)(=O)c2cc(-c3nnco3)ccc2C(N)=O)c2n[nH]c(=O)o2)c1C [Example 331, 2-(N-((1S,2R)-2-(6-fluoro-2,3-dimethylphenyl)-1-(5-oxo-4,5-dihydro-1,3,4-oxadiazol-2-yl)propyl)sulfamoyl)-4-(1,3,4-oxadiazol-2-yl)benzamide] | 90
9 | Cc1ccc(F)c([C@@H](C)[C@@H](c2n[nH]c(=O)o2)N(C)S(=O)(=O)c2ccc(Cl)cc2C(N)=O)c1C [Example 337, 5-chloro-2-(N-((1S,2R)-2-(6-fluoro-2,3-dimethylphenyl)-1-(5-oxo-4,5-dihydro-1,3,4 oxadiazol-2-yl)propyl)-N-methylsulfamoyl)benzamide] | 80
10 | Cc1ccc(F)c([C@@H](C)[C@H](NS(=O)(=O)c2ccc(Br)cc2OC(F)(F)F)c2n[nH]c(=O)o2)c1C [Example 338, 4-bromo-N-((1S,2R)-(6-fluoro-2,3-dimethylphenyl)-1-(5-oxo-4,5-dihydro-1,3,4-oxadiazol-2-yl)propyl)-2-(trifluoromethoxy)benzenesulfonamide] | 100
11 | Cc1ccc(F)c([C@@H](C)[C@H](NS(=O)(=O)c2cc(F)c(Br)cc2F)c2n[nH]c(=O)o2)c1C [Example 339, 4-bromo-2,5-difluoro-N-((1S,2R)-(6-fluoro-2,3-dimethylphenyl)-1-(5-oxo-4,5-dihydro-1,3,4-oxadiazol-2-yl)propyl)benzenesulfonamide] | 510

Continued by falling IC50, values first:

Row | IC50 [nM] | SMILES
12 | 830 | COC(=O)c1cc(S(=O)(=O)N[C@H](c2n[nH]c(=S)o2)[C@H](C)c2cccc3c2CCC3)ccc1Cl [Example 334, methyl 2-chloro-5-(N-((1S,2R)-2-(2,3-dihydro-1H-inden-4-yl)-1-(5-thioxo-4,5-dihydro-1,3,4-oxadiazol-2-yl)propyl)sulfamoyl)benzoate]
13 | 600 | COc1cc(Cl)ccc1S(=O)(=O)N[C@H](c1n[nH]c(=O)o1)[C@H](C)c1c(F)ccc(-c2ccc(N3CCCCC3)nc2)c1C [Example 320, 4-chloro-N-((1S,2R)-2-(6-fluoro-2-methyl-3-(6-(piperidin-1-yl)pyridin-3-yl)phenyl)-1-(5-oxo-4,5-dihydro-1,3,4-oxadiazol-2-yl)propyl)-2-methoxybenzenesulfonamide]
14 | 310 | COC(=O)c1c(Cl)ccc(S(=O)(=O)N[C@H](c2n[nH]c(=S)o2)[C@H](C)c2cccc3c2CCC3)c1Cl [Example 333, methyl 2,6-dichloro-3-(N-((1S,2R)-2-(2,3-dihydro-1H-inden-4-yl)-1-(5-thioxo-4,5-dihydro-1,3,4-oxadiazol-2-yl)propyl)sulfamoyl)benzoate]
15 | 280 | COc1ncc(-c2ccc(F)c([C@@H](C)[C@H](NS(=O)(=O)c3ccc(Cl)cc3OC)c3n[nH]c(=O)o3)c2C)cn1 [Example 319, 4-chloro-N-((1S,2R)-2-(6-fluoro-3-(2-methoxypyrimidin-5-yl)-2-methylphenyl)-1-(5-oxo-4,5-dihydro-1,3,4-oxadiazol-2-yl)propyl)-2-methoxybenzenesulfonamide]
16 | 260 | COc1ccc(-c2ccc(F)c([C@@H](C)[C@H](NS(=O)(=O)c3ccc(Cl)cc3OC)c3n[nH]c(=O)o3)c2C)cn1 [Example 314, 4-chloro-N-((1S,2R)-2-(6-fluoro-3-(6-methoxypyridin-3-yl)-2-methylphenyl)-1-(5-oxo-4,5-dihydro-1,3,4-oxadiazol-2-yl)propyl)-2-methoxybenzenesulfonamide]
17 | 220 | COc1cc(Cl)ccc1S(=O)(=O)N[C@H](c1n[nH]c(=O)o1)[C@H](C)c1c(F)ccc(-c2cnc3c(c2)OCCN3C)c1C [Example 322, 4-chloro-N-((1S,2R)-2-(6-fluoro-2-methyl-3-(4-methyl-3,4-dihydro-2H-pyrido[3,2-b][1,4]oxazine-7-yl)phenyl)-1-(5-oxo-4,5-dihydro-1,3,4-oxadiazol-2-yl)propyl)-2-methoxybenzenesulfonamide]
18 | 130 | Cc1ccc(F)c([C@@H](C)[C@H](NS(=O)(=O)c2ccc(Br)cc2C(N)=O)c2n[nH]c(=S)o2)c1C [Example 332, 5-bromo-2-(N-((1S,2R)-2-(6-fluoro-2,3-dimethylphenyl)-1-(5-thioxo-4,5-dihydro-1,3,4-oxadiazol-2-yl)propyl)sulfamoyl)benzamide]
19 | 60 | Cc1c(Br)ccc(F)c1[C@@H](C)[C@H](NS(=O)(=O)c1ccc(Cl)c2c1OCCC2(C)N)c1n[nH]c(=O)o1 (stereo partly drawn) [Example 329, 4-amino-N-((1S,2R)-2-(3-bromo-6-fluoro-2-methylphenyl)-1-(5-oxo-4,5-dihydro-1,3,4-oxadiazol-2-yl)propyl)-5-chloro-4-methyl-chroman-8-sulfonamide]
